Measurements reported in patent US20130012546A1 (priority 2009, published 2013).

Assays:
Phytophthora infestans = type: in vivo; conditions: tomato plants, preventive spray, 100 ppm of active ingredient, evaluated 7 days after inoculation
Plasmopara viticola = assay: Plasmopara test (grapevines) / preventive; type: in vivo; conditions: preventive spray, 10 ppm of active ingredient, evaluated 6 days after inoculation
Experimental: Plasmopara Test (Grapevines)/Preventive
Solvent: 24.5 parts by weight of acetone • 24.5 parts by weight of dimethylacetamide Emulsifier: 1 part by weight of alkylaryl polyglycol ether
To produce a suitable preparation of active compound, 1 part by weight of active compound is mixed with the stated amounts of solvent and emulsifier, and the concentrate is diluted with water to the desired concentration.
To test for preventive activity, young plants are sprayed with the preparation of active compound at the stated rate of application. After the spray coating has dried on, the plants are inoculated with an aqueous spore suspension of Plasmopara viticola and then remain for 1 day in an incubation cabinet at approximately 20° C. and a relative atmospheric humidity of 100%. The plant is subsequently placed for 4 days in a greenhouse at approximately 21° C. and a relative atmospheric humidity of approximately 90%. The plants are then misted and placed for 1 day in an incubation cabinet.
The test is evaluated 6 days after the inoculation. 0% means an efficacy which corresponds to that of the untreated control, while an efficacy of 100% means that no disease is observed.

logP(HCOOH) by HPLC = type: physicochemical; conditions: for log p: HPLC on reversed phase columns, pH 2.7, 0.1% formic acid in water / acetonitrile, linear gradient 10% to 95% acetonitrile, EEC directive 79/831 Annex V.A8
Pythium ultimum = assay: Pythium test (cotton) / seed treatment; type: in vivo; conditions: 10 g/dt seed of active ingredient, emerged seedlings counted after 7 days in greenhouse
Experimental: Pythium Test (Cotton)/Seed Treatment
The test is performed under greenhouse conditions.
Cotton seeds, treated with the active compound or compound combinations, solved in N-methyl-2-pyrrolidon and diluted with water to the desired dosages, were sown in 6*6 cm pots containing 4 cm of a 1:1 mix of steamed field soil and sand.
Perlite was incubated with mycelium fragments of Pythium ultimum. 1 ml of infected perlite was scattered between the treated cotton seeds. Seeds were then covered by light expanded clay aggregate. Pots were incubated in the greenhouse 7 days at 20° C. and 80% relative humidity.
Assessment consisted of counting of emerged seedlings. 0% means an efficacy which corresponds to that of the control, while an efficacy of 100% means that all seedlings have emerged.

| SMILES | Efficacy % (Phytophthora infestans) [%] | Efficacy % (Plasmopara viticola) [%] | log p (logP(HCOOH) by HPLC) | Efficacy % (Pythium ultimum) [%] | chromatographic logP (logP(HCOOH) by HPLC; reversed phase HPLC column, pH 2.7, HCOOH, read-out: logP(HCOOH)) |
| --- | --- | --- | --- | --- | --- |
| C=CCCCOCC(=O)Nc1nc(CON=C(c2ccccc2)c2nnnn2C)cs1 [Example 6] | 95 | 90 | 3.52 | – | – |
| CON=C(C(=O)Nc1nc(CON=C(c2ccccc2)c2nnnn2C)cs1)c1ccccc1Cl [Example 10] | 95 | 90 | 3.87 | 88 | – |
| Cn1nnnc1C(=NOCc1csc(NC(=O)COC2CCCCC2)n1)c1ccccc1 [Example 12] | 92 | 94 | 3.85 | 100 | – |
| Cc1nnnn1C(=NOCc1cccc(NC(=O)OC(C)CC2CC2)n1)c1ccccc1 (stereo not drawn) [Example 14] | 95 | 94 | 4.24 | – | – |
| Cc1nnnn1C(=NOCc1cccc(NC(=O)OCC2CCCCC2)n1)c1ccccc1 [Example 16] | 95 | 85 | 4.8 | – | – |
| Cc1nnnn1C(=NOCc1cccc(NC(=O)OCCCC2CC2)n1)c1ccccc1 [Example 18] | 100 | 72 | 4.29 | – | – |
| Cc1nnnn1C(=NOCc1cccc(NC(=O)OCC2CCCC2)n1)c1ccccc1 [Example 20] | 95 | 97 | 4.41 | – | – |
| CC(=NOCC(=O)Nc1nc(CON=C(c2ccccc2)n2nnnc2C)cs1)c1ccccc1 [Example 39] | 98 | – | 3.79 | 85 | – |
| C=CCOC(C)C(=O)Nc1cccc(CO/N=C(/c2ccccc2)c2nnnn2C)n1 (stereo not drawn) [Example 42] | 98 | 70 | 3.35 | – | – |
| C=CCOC(C)C(=O)Nc1nc(CO/N=C(/c2ccccc2)n2nnnc2C)cs1 (stereo not drawn) [Example 45] | 95 | 84 | 3.19 | – | – |
| C=CCCOC(C)C(=O)Nc1nc(CO/N=C(/c2ccccc2)c2nnnn2C)cs1 (stereo not drawn) [Example 46] | 98 | 79 | 3.48 | – | – |
| C=CCCOCC(=O)Nc1nc(CO/N=C(/c2ccccc2)c2nnnn2C)cs1 [Example 47] | 95 | 82 | 3.19 | – | – |
| C=CCOC(C)C(=O)Nc1nc(CO/N=C(/c2ccccc2)c2nnnn2C)cs1 (stereo not drawn) [Example 48] | 100 | 74 | 3.13 | – | – |
| C#CCOC(C)C(=O)Nc1nc(CO/N=C(/c2ccccc2)c2nnnn2C)cs1 (stereo not drawn) [Example 51] | 95 | 96 | 2.82 | 100 | – |
| C#CCOC(C)C(=O)Nc1nc(CO/N=C(/c2ccccc2)n2nnnc2C)cs1 (stereo not drawn) [Example 53] | 95 | 95 | 2.92 | 100 | – |
| Cn1nnnc1C(=NOCc1csc(NC(=O)OCCC2CCCCC2)n1)c1ccccc1 [Example 62] | 100 | 88 | 4.66 | – | – |
| Cn1nnnc1C(=NOCc1csc(NC(=O)OCC2CC2)n1)c1ccccc1 [Example 63] | 100 | 93 | 3.23 | – | – |
| CC(CC1CC1)OC(=O)Nc1nc(CON=C(c2ccccc2)c2nnnn2C)cs1 (stereo not drawn) [Example 64] | 95 | 94 | 3.83 | – | – |
| Cc1nnnn1C(=NOCc1csc(NC(=O)COC2CCCCC2)n1)c1ccccc1 [Example 78] | 100 | 79 | 3.89 | – | – |
| Cn1nnnc1C(=NOCc1csc(NC(=O)COC2CCCC2)n1)c1ccccc1 [Example 84] | 98 | 90 | 3.53 | – | – |

| SMILES | Efficacy % (Phytophthora infestans) [%] | Efficacy % (Plasmopara viticola) [%] | log p (logP(HCOOH) by HPLC) | Efficacy % (Pythium ultimum) [%] | chromatographic logP (logP(HCOOH) by HPLC; reversed phase HPLC column, pH 2.7, HCOOH, read-out: logP(HCOOH)) |
| --- | --- | --- | --- | --- | --- |
| Cn1nnnc1C(=NOCc1cccc(NC(=O)COC2CCCC2)n1)c1ccccc1 [Example 85] | 95 | – | 3.83 | – | – |
| Cc1nnnn1C(=NOCc1csc(NC(=O)COC2CCCC2)n1)c1ccccc1 [Example 86] | 95 | 81 | 3.6 | – | – |
| Cc1nnnn1C(=NOCc1cccc(NC(=O)COC2CCCC2)n1)c1ccccc1 [Example 87] | 90 | – | 3.92 | – | – |
| Cc1nnnn1C(=NOCc1cccc(NC(=O)COC2CCCCCC2)n1)c1ccccc1 [Example 88] | 95 | – | 4.67 | – | – |
| Cc1nnnn1C(=NOCc1csc(NC(=O)COC2CCCCCC2)n1)c1ccccc1 [Example 89] | 100 | 73 | 4.3 | – | – |
| Cn1nnnc1C(=NOCc1cccc(NC(=O)COC2CCCCCC2)n1)c1ccccc1 [Example 90] | 100 | – | 4.56 | – | – |
| Cn1nnnc1C(=NOCc1csc(NC(=O)COC2CCCCCC2)n1)c1ccccc1 [Example 91] | 100 | 94 | 4.23 | 96 | – |
| CC(OC1CCCCC1)C(=O)Nc1nc(CON=C(c2ccccc2)c2nnnn2C)cs1 (stereo not drawn) [Example 92] | 100 | 93 | 4.14 | – | – |
| Cc1nnnn1C(=NOCc1csc(NC(=O)C(C)OC2CCCC2)n1)c1ccccc1 (stereo not drawn) [Example 93] | 100 | 91 | 3.87 | – | – |
| Cc1nnnn1C(=NOCc1csc(NC(=O)C(C)OC2CCCCC2)n1)c1ccccc1 (stereo not drawn) [Example 94] | 93 | – | 4.21 | – | – |
| CC(OC1CCCCCC1)C(=O)Nc1nc(CON=C(c2ccccc2)c2nnnn2C)cs1 (stereo not drawn) [Example 95] | 95 | – | 4.51 | – | – |
| Cc1nnnn1C(=NOCc1csc(NC(=O)C(C)OC2CCCCCC2)n1)c1ccccc1 (stereo not drawn) [Example 96] | 98 | – | 4.58 | – | – |
| CC(OC1CCCC1)C(=O)Nc1nc(CO/N=C(/c2ccccc2)c2nnnn2C)cs1 (stereo not drawn) [Example 97, 2-(cyclopentyloxy)-N-{4-[({[(Z)-(1-methyl-1H-tetrazol-5-yl)(phenyl)methylene]amino}oxy)methyl]-1,3-thiazol-2-yl}propanamide] | 95 | – | – | – | 3.8 |
| CC(OC1CCCC1)C(=O)Nc1cccc(CON=C(c2ccccc2)c2nnnn2C)n1 (stereo not drawn) [Example 98] | 98 | – | 4.11 | – | – |
| CC(OC1CCCCC1)C(=O)Nc1cccc(CON=C(c2ccccc2)c2nnnn2C)n1 (stereo not drawn) [Example 99] | 90 | – | 4.49 | – | – |
| C=C=CCCC(=O)Nc1cccc(CON=C(c2ccccc2)c2nnnn2C)n1 [Example 101] | 93 | 81 | 3.21 | 100 | – |
| C=C=CCCC(=O)Nc1nc(CON=C(c2ccccc2)c2nnnn2C)cs1 [Example 102] | 80 | 83 | 3.11 | – | – |
| CC1CCC(C(C)C)C(OCC(=O)Nc2nc(CON=C(c3ccccc3)c3nnnn3C)cs2)C1 (stereo not drawn) [Example 107] | 95 | – | 5.39 | – | – |
| CC1CCC(C(C)C)C(OCC(=O)Nc2nc(CON=C(c3cccc(F)c3)c3nnnn3C)cs2)C1 (stereo not drawn) [Example 109] | 84 | – | 5.47 | – | – |
